25 compounds from US11976054B2, “Amide derivative and preparation method therefore and use thereof in medicine” (Chengdu Baiyu Pharmaceutical Co., Ltd., priority 2019, dated 2024) can be followed below.

In the first test the test system is Human monocyte cell line THP-1. Briefly: Detection of THP-1 cell pyroptosis (Caspase-Glo 1 Inflammasome Assay). In kind it is cell-based. The note with it: Homo sapiens, THP-1, THP-1 pyroptosis, 20 nM PMA 48 h, 1 μg/mL LPS, compound 3 h. The method, then: Human monocyte cell line THP-1 (ATCC® TB-202TM) was cultured in RPMI-1640 culture medium containing […], 1 mM pyruvic acid, 0.05 mM β-mercaptoethanol and 10% double antibody under the culture conditions of 37° C. and […].
Cell counting was performed, THP-1 cells were seeded into a 96-well plate at 50000 per well, and 20 nM PMA was added for inducing at 37° C./5% CO2 for 48 h. The culture medium was then discarded, and 100 μL of serum-free RPMI-1640 medium containing 1 μg/mL LPS was added. 5 μL of compound or solvent control was added and 3-fold diluted in gradient from a maximum concentration of 10 μM, and 10 gradient concentrations were set. The mixtures were incubated at 37° C./5% CO2 for 3 h. After the incubation, the mixtures were centrifuged at 300 g for 5 min, and the culture medium was discarded. Pyroptosis assay was performed according to specific steps described in instructions of Caspase-Glo® 1 Inflammasome Assay kit. IC50 was calculated using GraphPad Prism7.0 software.
In turn, `C[C@@H](c1ccc2c(c1NC(=O)N[S@@](=N)(=O)c1cc(C(C)(C)O)cs1)CCC2)C1CC1` [Compound 55-1] registered a half-inhibitory concentration (IC50) of 100 to 500 nM. Same read-out and setting: next, `C[C@H](c1ccc2c(c1NC(=O)NS(=O)(=O)c1ccc(C(C)(C)O)s1)CCC2)C1CC1` [Compound 57, (S)-N-((5-(1-cyclopropylethyl)-2,3-dihydro-1H-inden-4-yl)carbamoyl)-5-(2-hydroxypropan-2-yl)thiophene-2-sulfonamide]: 1000 to 5000 nM; `C[C@@H](c1ccc2c(c1NC(=O)NS(=O)(=O)c1ccc(C(C)(C)O)s1)CCC2)C1CC1` [Compound 58, (R)-N-((5-(1-cyclopropylethyl)-2,3-dihydro-1H-inden-4-yl)carbamoyl)-5-(2-hydroxypropan-2-yl)thiophene-2-sulfonamide]: 1000 to 5000 nM; `C[C@@H](c1ccc2c(c1NC(=O)NS(=O)(=O)c1cc(C3(O)CC3)co1)CCC2)C1CC1` [Compound 59, (R)-N-((5-(1-cyclopropylethyl)-2,3-dihydro-1H-inden-4-yl)carbamoyl)-4-(1-hydroxycyclopropyl)furan-2-sulfonamide]: 500 to 1000 nM. The compound `C[C@H](c1ccc2c(c1NC(=O)NS(=O)(=O)c1cc(C3(O)CC3)co1)CCC2)C1CC1` [Compound 60, (S)-N-((5-(1-cyclopropylethyl)-2,3-dihydro-1H-inden-4-yl)carbamoyl)-4-(1-hydroxycyclopropyl)furan-2-sulfonamide] gave an IC50 of 100 to 500 nM.

In turn, `O=C(Nc1c(CC2CCC2)ccc2c1CCC2)NS(=O)(=O)c1cc(C2(O)CC2)co1` [Compound 61, N-((5-(cyclobutylmethyl)-2,3-dihydro-1H-inden-4-yl)carbamoyl)-4-(1-hydroxycyclopropyl)furan-2-sulfonamide] came in with a concentration for half-maximal inhibition (IC50) of 1000 to 5000 nM. In the case of `C[C@@H](c1ccc2c(c1NC(=O)NS(=O)(=O)c1sc(C(C)(C)O)cc1C#N)CCC2)C1CC1` [Compound 62, (R)-3-cyano-N-((5-(1-cyclopropylethyl)-2,3-dihydro-1H-inden-4-yl)carbamoyl)-5-(2-hydroxypropan-2-yl)thiophene-2-sulfonamide], the IC50 was at most 100 nM. With `C[C@H](c1ccc2c(c1NC(=O)NS(=O)(=O)c1sc(C(C)(C)O)cc1C#N)CCC2)C1CC1` [Compound 63, (S)-3-cyano-N-((5-(1-cyclopropylethyl)-2,3-dihydro-1H-inden-4-yl)carbamoyl)-5-(2-hydroxypropan-2-yl)thiophene-2-sulfonamide], the IC50 lay in the range of 100 to 500 nM. `C[C@@H](c1ccc2c(c1NC(=O)NS(=O)(=O)c1sc(C(C)(C)O)cc1F)CCC2)C1CC1` [Compound 64, (R)-N-((5-(1-cyclopropylethyl)-2,3-dihydro-1H-inden-4-yl)carbamoyl)-3-fluoro-5-(2-hydroxypropan-2-yl)thiophene-2-sulfonamide] came in with an IC50 of 100 to 500 nM.

With `C[C@H](c1ccc2c(c1NC(=O)NS(=N)(=O)c1ccc(C3(O)COC3)s1)CCC2)C1CC1` (stereo partly drawn) [Compound 65C, N-((5-((S)-1-cyclopropylethyl)-2,3-dihydro-1H-inden-4-yl)carbamoyl)-5-(3-hydroxyoxetan-3-yl)thiophene-2-sulfonimidamide], the IC50 is 100 to 500 nM.

Regarding `C[C@@H](c1ccc2c(c1NC(=O)NS(=O)(=O)c1ccc(C3(O)CCOCC3)s1)CCC2)C1CC1` [Compound 68], the IC50 was 100 to 500 nM. For the compound `CC(C)c1cccc([C@@H](C)C2CC2)c1NC(=O)NS(=O)(=O)c1cc(C(C)(C)O)co1` [Compound 71, (S)-N-((2-(1-cyclopropylethyl)-6-isopropylphenyl)carbamoyl)-4-(2-hydroxypropan-2-yl)furan-2-sulfonamide], the IC50 was 100 to 500 nM. `CC(C)c1cccc([C@H](C)C2CC2)c1NC(=O)NS(=O)(=O)c1cc(C(C)(C)O)co1` [Compound 72] displayed an IC50 of 100 to 500 nM. In turn, `C[C@@H](c1ccc2c(c1NC(=O)NS(=O)(=O)c1cc(C(C)(C)O)co1)CCC2)C1CCC1` [Compound 79, (R)-N-((5-(1-cyclobutylethyl)-2,3-dihydro-1H-inden-4-yl)carbamoyl)-4-(2-hydroxypropan-2-yl)furan-2-sulfonamide] came in with an IC50 of 100 to 500 nM. In the case of `C[C@H](c1ccc2c(c1NC(=O)NS(=O)(=O)c1cc(C(C)(C)O)co1)CCC2)C1CCC1` [Compound 81, (S)-N-((5-(1-cyclobutylethyl)-2,3-dihydro-1H-inden-4-yl)carbamoyl)-4-(2-hydroxypropan-2-yl)furan-2-sulfonamide], the concentration for half-maximal inhibition (IC50) was 1000 to 5000 nM.

Turning to `CC(C)(O)c1csc(S(=N)(=O)NC(=O)Nc2c(CC3CCC3)ccc3c2CCC3)c1` (stereo not shown) [Compound 83A, N-((5-(cyclobutylmethyl)-2,3-dihydro-1H-inden-4-yl)carbamoyl)-4-(2-hydroxypropan-2-yl)thiophene-2-sulfonimidamide], the IC50 is at most 100 nM. The compound `CC(C)(O)c1coc(S(=O)(=O)NC(=O)Nc2c(C(C3CC3)C3CC3)ccc3c2CCC3)c1` [Compound 86, N-((5-(dicyclopropylmethyl)-2,3-dihydro-1H-inden-4-yl)carbamoyl)-4-(2-hydroxypropan-2-yl)furan-2-sulfonamide] gave an IC50 of 500 to 1000 nM.

`C[C@H](c1ccc2c(c1NC(=O)NS(=O)(=O)c1cnc(C(C)(C)O)s1)CCC2)C1CC1` [Compound 88, (S)-N-((5-(1-cyclopropylethyl)-2,3-dihydro-1H-inden-4-yl)carbamoyl)-2-(2-hydroxypropan-2-yl)thiazole-5-sulfonamide] came in with an IC50 of 100 to 500 nM. Compound `Cc1cc2c(c(NC(=O)NS(=O)(=O)c3cc(C(C)(C)O)co3)c1[C@H](C)C1CC1)CCC2` [Compound 90, (R)-N-((5-(1-cyclopropylethyl)-6-methyl-2,3-dihydro-1H-inden-4-yl)carbamoyl)-4-(2-hydroxypropan-2-yl)furan-2-sulfonamide] returned an IC50 of 100 to 500 nM.

The same test, now with this note: THP-1 pyroptosis, 20 nM PMA 48 h, 1 μg/mL LPS, compound 3 h.
`Cc1ccc(S(=N)(=O)NC(=O)Nc2c(C(C)C)cccc2C(C)C)cc1` (stereo not shown) [Compound 92-1, RS- and SS-N-((2,6-diisopropylphenyl)carbamoyl)-4-methylbenzenesulfonimidamide, reference compound] had an IC50 of over 10000 nM.

As to `Cc1ccc(S(=N)(=O)NC(=O)Nc2c(C(C)C)cccc2C(C)C)cc1` (stereo not shown) [Compound 92-2, RS- and SS-N-((2,6-diisopropylphenyl)carbamoyl)-4-methylbenzenesulfonimidamide, reference compound], the IC50 was over 10000 nM. “(RS, RC)- and (SS, RC)-N-((5-(1-cyclopropylethyl)-2,3-dihydro-1H-inden-4-yl-7-d)carbamoyl)-4-(2-hydroxypropan-2-yl)furan-2-sulfonimidamide [Compound 31-1]” had an IC50 of 100 to 500 nM. In turn, “(RS, SC)- and (SS, SC)-N-((5-(1-cyclobutylethyl)-2,3-dihydro-1H-inden-4-yl)carbamoyl)-4-(2-hydroxypropan-2-yl)furan-2-sulfonimidamide [Compound 82-2]” came in with an IC50 of 1000 to 5000 nM. In turn, “(RS, SC)- and (SS, SC)-N-((5-(1-cyclopropylethyl)-2,3-dihydro-1H-inden-4-yl)carbamoyl)-4-(2-hydroxypropan-2-yl-1,1,1,3,3,3-d6)furan-2-sulfonimidamide [Compound 49-1]” yielded a 50% inhibitory concentration (IC50) of 100 to 500 nM.

On to “RS- and SS-N-((5-(cyclobutylmethyl)-2,3-dihydro-1H-inden-4-yl)carbamoyl)-4-(2-hydroxypropan-2-yl-1,1,1,3,3,3-d6)furan-2-sulfonimidamide [Compound 50-1]”, for which the IC50 lay in the range of 500 to 1000 nM.

What is called IC50 is the concentration at which inhibition is half-maximal.
